Data on 28 compounds can be found in US4666931A, “Benzofuran derivatives useful in treating diabetic complications” (Kaken Pharmaceutical Co., Ltd., priority 1984, dated 1987).

Each structure is given as a SMILES string. Like-named read-outs stand apart in the source and are kept apart here.

One assay concerns cyclooxygenase. The assay is described as follows: Cyclooxygenase inhibition: malondialdehyde production from arachidonic acid, 9000 G supernatant of lung homogenate from guinea pig. It is filed as biochemical. Particulars: guinea pig lung 9000 G supernatant, compared with aspirin. As to the method:
Lung from guinea pig was washed with physiological saline and homogenized in 0.1M Tris-hydrochloric acid buffer to prepare a supernatant by cooled centrifugation (9000 G).
The inhibiting activity against cyclooxygenase was measured by using the 9000 G supernatant as a source of cyclooxygenase in the presence of 1 mM epinephiline.

The target of assay [1] is T1, aldose reductase from rat lens (Rattus norvegicus, UniProt P07943).
T1 construct: the supernatant was prepared as the crude enzyme solution; from tissue; host or cells: lens of male Wistar rats, 10,000 g supernatant of homogenate (crude enzyme)
The assay is described as follows: Aldose reductase inhibiting activity. It counts as biochemical. To be noted: DL-glyceraldehyde substrate, Table 2, read-out: IC50 (50% inhibition concentration in M). As to the method:
Wistar male rats were sacrificed by decapitation and the lenses were taken out to be homogenized with a 0.1M phosphate buffer [pH 6.8, containing 1 mM of mercaptoethanol and 1 mM of nicotinamide-adenine dinucleotide phosphate (NADP)]. The homogenate was then centrifuged at 10,000 g for 15 minutes and the supernatant was prepared as the crude enzyme solution.

Assay [2] relates to production of malondialdehyde from arachidonic acid by rabbit platelets. The assay is described as follows: Arachidonic acid metabolism inhibiting activity: production of malondialdehyde from arachidonic acid by rabbit platelets. It counts as cell-based. To be noted: Oryctolagus cuniculus, Platelet, arachidonic acid 0.2 mM, read-out: concentration showing 50% inhibition against the production of malondialdehyde from arachidonic acid. The method, then: Washed rabbit platelets prepared as in the platelet aggregation inhibiting activity test were suspended in 15 mM Tris-hydrochloric acid buffer with a final concentration of 1×10^8 cell/ml, to which each test compound of the compound Nos. 8, 13, 14, 19, 20, 23, 29, 30 and 33 were added and the resultant was preincubated at 37° C. for five minutes. Then arachidonic acid (a final concentration: 0.2 mM, made by Sigma Chemical Co.) was added thereto and the mixture was preincubated for 1 minute. An amount of the produced malondialdehyde was measured according to the thiobarbiturates method (Ed. Aoki and Shibata, Ketsuekigaku Kenkyukensaho, P 441 to 447).

The subject of assay [3] is aggregation of the washed rabbit platelet by thrombin. The assay is described as follows: Platelet aggregation inhibiting activity (washed rabbit platelet, thrombin). It is filed as cell-based. To be noted: for IC50: Oryctolagus cuniculus, Platelet; for platelet aggregation inhibiting activity relative to Persantin: compared with Persantin (dipyridamole). The method, then: Blood samples were collected from the auricular blood vessel of rabbits (white local breed), and washed platelets were prepared therefrom by the method of Baenziger et al. (N. L. Baenziger and P. W. Majerus, Methods Enzymol., 31, 149 to 155 (1974). The platelets were suspended in a 15 mM Tris-hydrochloric acid buffer with a final concentration of 6×10^8 cells/ml (Tris: tris(hydroxymethyl)aminomethane). Each test compound of the compound Nos. 5, 8, 9, 11, 23, 29, 30 and 33 and Persantin® was added thereto and incubation was carried out at 37° C. for 2 minutes. Then the platelets were stimulated by addition of thrombin (0.2 unit/ml of final concentration; made by Mochida Pharmaceutical Co.) and the aggregation inhibiting activity was estimated by the observation of the aggregation reaction using an aggregometer (made by Briston Co.).
The results are shown in Table 3 in terms of IC50 (50% inhibiton concentration in M).

[4] abbreviates: range for nine compounds, read-out: concentration showing 50% inhibition against the aggregation of the washed rabbit platelet by thrombin.
Setting [5] is: washed rabbit platelets, thrombin 0.2 unit/ml, 37° C., Table 3, read-out: IC50 (50% inhibition concentration in M).

`CCOc1ccc(S(=O)(=O)NCC(=O)O)c2cc(C(=O)O)oc12` [Compound 14, 2-carboxy-4-(N-carboxymethylsulfamoyl)-7-ethoxybenzofuran]: the “inhibition against malondialdehyde production relative to aspirin” value in the assay on cyclooxygenase is reported as “equivalent to or more than”. Besides, the IC50 is 70 nM in assay [1] and 10000 to 100000 nM in assay [2].
On to `CCCCOc1ccc(S(=O)(=O)N(C)C(C)C(=O)O)c2cc(C(C)=O)oc12` (stereo not shown) [Compound 10, 2-acetyl-4-(N-methyl-N-(1-carboxyethyl)sulfamoyl)-7-n-butoxybenzofuran], for which the IC50 in assay [3] (setting [4]) was 20000 to 200000 nM; in assay [3] (setting [5]), 160000 nM; in assay [1], 7000 nM. In addition, the “platelet aggregation inhibiting activity relative to Persantin” value in assay [3] is “equivalent to or more than”.
`CC(=O)c1cc2c(S(=O)(=O)NCC(=O)O)c3c(cc2o1)OCO3` [Compound 17, 2-acetyl-4-(N-carboxymethylsulfamoyl)-5,6-methylenedioxybenzofuran]: in assay [1], the IC50 stood at 2000 nM.
Same read-out and setting: the figure for `CCc1oc2ccc(NC(C)=O)cc2c1S(=O)(=O)NCC(=O)O` [Compound 22, 2-ethyl-3-(N-carboxymethylsulfamoyl)-5-acetylaminobenzofuran] is 50 nM; for `CCCCOc1ccc(S(=O)(=O)NCC(=O)O)c2cc(C(C)=O)oc12` [Compound 4, 2-acetyl-4-(N-carboxymethylsulfamoyl)-7-n-butoxybenzofuran] it is 40 nM.
`COc1ccc(S(=O)(=O)NCC(=O)O)c2cc(C3(C)NC(=O)NC3=O)oc12` (stereo not shown) [Compound 19, 2-(4-methyl-2,5-dioxoimidazolidine-4-yl)-4-(N-carboxymethylsulfamoyl)-7-methoxybenzofuran]: the “inhibition against malondialdehyde production relative to aspirin” value in the assay on cyclooxygenase was “equivalent to or more than”. Besides, the IC50 in assay [1] is 2000 nM; in assay [2], 10000 to 100000 nM.
On to `CCOc1ccc(S(=O)(=O)NCC(=O)O)c2cc(C(C)=O)oc12` [Compound 2, 2-acetyl-4-(N-carboxymethylsulfamoyl)-7-ethoxybenzofuran], for which the IC50 in assay [1] stood at 100 nM.
Regarding `COc1c(S(=O)(=O)NCC(=O)O)cc(S(=O)(=O)NCC(=O)O)c2cc(C3(C)NC(=O)NC3=O)oc12` (stereo not shown) [Compound 20, 2-(4-methyl-2,5-dioxoimidazolidine-4-yl)-4,6-di(N-carboxymethylsulfamoyl)-7-methoxybenzofuran], the “inhibition against malondialdehyde production relative to aspirin” value in the assay on cyclooxygenase was “equivalent to or more than”. For the same compound, the IC50 in assay [1] was 300 nM; in assay [2], 10000 to 100000 nM.
Turning to `CCCCCCOc1ccc(S(=O)(=O)NCC(=O)O)c2cc(C(C)=O)oc12` [Compound 6, 2-acetyl-4-(N-carboxymethylsulfamoyl)-7-n-hexyloxybenzofuran], the IC50 in assay [1] was found to be 50 nM.
As for `COc1ccc(S(=O)(=O)NCC(=O)O)c2cc(C(C)=O)oc12` [Compound 1, 2-acetyl-4-(N-carboxymethylsulfamoyl)-7-methoxybenzofuran], the IC50 in assay [1] is 200 nM.
The same measure, in the same setting: the figure for `CC(=O)c1cc2c(S(=O)(=O)NCC(=O)O)ccc(OCC(C)Cl)c2o1` (stereo not shown) [Compound 25, 2-acetyl-4-(N-carboxymethylsulfamoyl)-7-(2-chloropropyloxy)benzofuran] is 200 nM.
On to `COc1ccc(COc2ccc(S(=O)(=O)N(CC(=O)O)Cc3ccc(OC)cc3)c3cc(C(C)=O)oc23)cc1` [Compound 33, 2-acetyl-4-(N-p-methoxybenzyl-N-carboxymethylsulfamoyl)-7-p-methoxybenzyloxybenzofuran], for which the IC50 is 20000 to 200000 nM in assay [3] (setting [4]), 20000 nM in assay [3] (setting [5]), 800 nM in assay [1] and 10000 to 100000 nM in assay [2]. In addition, the “platelet aggregation inhibiting activity relative to Persantin” value in assay [3] is “equivalent to or more than”. Besides, in the assay on cyclooxygenase, the “inhibition against malondialdehyde production relative to aspirin” value is listed as “equivalent to or more than”.
For `COc1ccc(S(=O)(=O)NCC(=O)O)c2oc(C(C)=O)cc12` [Compound 18, 2-acetyl-4-methoxy-7-(N-carboxymethylsulfamoyl)benzofuran], the IC50 in assay [1] amounted to 5000 nM.
As to `COc1ccc(S(=O)(=O)NCC(=O)O)c2cc(C(=O)O)oc12` [Compound 13, 2-carboxy-4-(N-carboxymethylsulfamoyl)-7-methoxybenzofuran], the “inhibition against malondialdehyde production relative to aspirin” value in the assay with cyclooxygenase is “equivalent to or more than”. Also, the values for the IC50 in assay [1] and in assay [2] were 100 nM and 10000 to 100000 nM, respectively.
`OCCN(CCO)c1nc(N2CCCCC2)c2nc(N(CCO)CCO)nc(N3CCCCC3)c2n1` [Persantin ®, dipyridamole, reference compound]: the IC50 in assay [3] (setting [5]) turned out to be 200000 nM.
In the case of `CC(=O)c1cc2c(S(=O)(=O)NCC(=O)O)ccc(C)c2o1` [Compound 15, 2-acetyl-4-(N-carboxymethylsulfamoyl)-7-methylbenzofuran], the IC50 in assay [1] is 500 nM.
Same read-out and setting: the figure for `CC(=O)c1cc2c(S(=O)(=O)NCC(=O)O)ccc(O)c2o1` [Compound 28, 2-acetyl-4-(N-carboxymethylsulfamoyl)-7-hydroxybenzofuran] is 80 nM.
In the case of `CC(=O)c1cc2c(S(=O)(=O)NCC(=O)O)ccc(OCC(=O)O)c2o1` [Compound 8, 2-acetyl-4-(N-carboxymethylsulfamoyl)-7-(carboxymethoxy)benzofuran], the IC50 was 20000 to 200000 nM in assay [3] (setting [4]), 130000 nM in assay [3] (setting [5]), 200 nM in assay [1] and 10000 to 100000 nM in assay [2]. The “platelet aggregation inhibiting activity relative to Persantin” value in assay [3] was “equivalent to or more than”. Further, the “inhibition against malondialdehyde production relative to aspirin” value in the assay with cyclooxygenase is “equivalent to or more than”.
As to `CCC(C)c1ccc(S(=O)(=O)NCC(=O)O)c2cc(C(C)=O)oc12` (stereo not shown) [Compound 16, 2-acetyl-4-(N-carboxymethylsulfamoyl)-7-sec-butylbenzofuran], the IC50 in assay [1] was determined as 400 nM.
Regarding `CC(=O)c1cc2c(S(=O)(=O)NCC(=O)O)ccc(OCc3ccc(Cl)cc3)c2o1` [Compound 30, 2-acetyl-4-(N-carboxymethylsulfamoyl)-7-p-chlorobenzyloxybenzofuran], the IC50 was 20000 to 200000 nM in assay [3] (setting [4]), 30000 nM in assay [3] (setting [5]), 40 nM in assay [1] and 10000 to 100000 nM in assay [2]. Also, the “platelet aggregation inhibiting activity relative to Persantin” value in assay [3] is recorded as “equivalent to or more than”. Moreover, the “inhibition against malondialdehyde production relative to aspirin” value in the assay with cyclooxygenase is reported as “equivalent to or more than”.
With `C=CCOc1ccc(S(=O)(=O)NCC(=O)O)c2cc(C(C)=O)oc12` [Compound 31, 2-acetyl-4-(N-carboxymethylsulfamoyl)-7-allyloxybenzofuran], in assay [1], the IC50 worked out at 50 nM.
Still for that read-out and setting: the figure for `CC(=O)c1cc2c(S(=O)(=O)N(CC(=O)O)Cc3ccccc3)ccc(OCc3ccccc3)c2o1` [Compound 35, 2-acetyl-4-(N-benzyl-N-carboxymethylsulfamoyl)-7-benzyloxybenzofuran] is 700 nM; for `O=C(O)CNS(=O)(=O)c1ccc(OCC(=O)O)c2oc(C(=O)O)cc12` [Compound 12, 2-carboxy-4-(N-carboxymethylsulfamoyl)-7-(carboxymethoxy)benzofuran] it is 200 nM.
In the case of `COc1ccc(COc2ccc(S(=O)(=O)NCC(=O)O)c3cc(C(C)=O)oc23)cc1` [Compound 24, 2-acetyl-4-(N-carboxymethylsulfamoyl)-7-p-methoxybenzyloxybenzofuran], the IC50 in assay [1] came out at 30 nM.
As to `CCCCCCCOc1ccc(S(=O)(=O)NCC(=O)O)c2cc(C(C)=O)oc12` [Compound 7, 2-acetyl-4-(N-carboxymethylsulfamoyl)-7-n-heptyloxybenzofuran], the IC50 in assay [3] (setting [5]) amounted to 150000 nM; in assay [1] it was 30 nM.
As to `CC(=O)c1cc2c(S(=O)(=O)NCC(=O)O)ccc(OCC#N)c2o1` [Compound 27, 2-acetyl-4-(N-carboxymethylsulfamoyl)-7-cyanomethyloxybenzofuran], the IC50 in assay [1] is 100 nM.
Take `CCCCOc1ccc(S(=O)(=O)NC(C)C(=O)O)c2cc(C(C)=O)oc12` (stereo not shown) [Compound 11, 2-acetyl-4-(N-(1-carboxyethyl)sulfamoyl)-7-n-butoxybenzofuran]: the figures for the IC50 in assay [3] (setting [4]), in assay [3] (setting [5]) and in assay [1] were 20000 to 200000 nM, 160000 nM and 5000 nM, respectively. For the same compound, the “platelet aggregation inhibiting activity relative to Persantin” value in assay [3] is “equivalent to or more than”.
For the compound `C=CCCOc1ccc(S(=O)(=O)NCC(=O)O)c2cc(C(C)=O)oc12` [Compound 32, 2-acetyl-4-(N-carboxymethylsulfamoyl)-7-(3-butenyloxy)benzofuran], the IC50 in assay [1] amounted to 30 nM.
